Here are results for 21 compounds from PubChem BioAssay AID248 (DTP/NCI, 2004).

The subject of the test is L1210 leukemia ip in BDF1 mice, survival T/C. Kind of test: NCI In Vivo Anticancer Drug Screen. Data for tumor model L1210 Leukemia (intraperitoneal) in B6D2F1 (BDF1) mice. The note with it: endpoint: mean survival time, higher = longer survival. In outline:
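Tumor was transplanted into mice, which were then dosed with test compound or vehicle alone. Survival was recorded for each group, and the treated figure was expressed relative to the control figure.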

The mark [1] stands for this setting: dose: 100.0 mg/kg/injection, schedule: Q01DX009 (ip), vehicle: Klucel (hydroxypropylcellulose) (HPC).
The mark [2] stands for this setting: dose: 200.0 mg/kg/injection, schedule: Q01DX009 (ip), vehicle: Klucel (hydroxypropylcellulose) (HPC).
The mark [3] stands for this setting: dose: 400.0 mg/kg/injection, schedule: Q01DX009 (ip), vehicle: Klucel (hydroxypropylcellulose) (HPC).
Setting [4] is: dose: 100.0 mg/kg/injection, schedule: Q04DX003 (ip), vehicle: Klucel (hydroxypropylcellulose) (HPC).
The mark [5] stands for this setting: dose: 200.0 mg/kg/injection, schedule: Q04DX003 (ip), vehicle: Klucel (hydroxypropylcellulose) (HPC).
The mark [6] stands for this setting: dose: 25.0 mg/kg/injection, schedule: Q04DX002 (ip), vehicle: saline.
Where [7] appears, read: dose: 50.0 mg/kg/injection, schedule: Q04DX002 (ip), vehicle: saline.
Where [8] appears, read: dose: 100.0 mg/kg/injection, schedule: Q04DX002 (ip), vehicle: saline.
The mark [9] stands for this setting: dose: 200.0 mg/kg/injection, schedule: Q04DX002 (ip), vehicle: saline.
Where [10] appears, read: dose: 100.0 mg/kg/injection, schedule: Q01DX001 (ip), vehicle: saline.
[11] abbreviates: dose: 200.0 mg/kg/injection, schedule: Q01DX001 (ip), vehicle: saline.
Where [12] appears, read: dose: 25.0 mg/kg/injection, schedule: Q01DX009 (ip), vehicle: Klucel (hydroxypropylcellulose) (HPC).
[13] abbreviates: dose: 50.0 mg/kg/injection, schedule: Q01DX009 (ip), vehicle: Klucel (hydroxypropylcellulose) (HPC).
Where [14] appears, read: dose: 100.0 mg/kg/injection, schedule: Q04DX002 (ip), vehicle: Klucel (hydroxypropylcellulose) (HPC).
The mark [15] stands for this setting: dose: 200.0 mg/kg/injection, schedule: Q04DX002 (ip), vehicle: Klucel (hydroxypropylcellulose) (HPC).

Where “and” joins values, the source holds several entries; their conditions need not be identical. Equal values may be shown once. Inconclusive results and toxic doses are left out. Square brackets hold non-standard residues; d marks the D form. Peptide text beside a SMILES is read from it. * marks the point of attachment. ξ: configuration not given here. ξE = NC(CCC(=O)O)C(=O)O; Cbz = O=C(OCc1ccccc1)*

On to `Cc1ccc(NC(=O)C(=O)Nc2ccc(C)cc2)cc1`, for which the T/C runs as follows: under setting [1], 90 % of control; (dose: 100.0 mg/kg/injection, schedule: Q04DX003 (ip), vehicle: other) 93 % of control; under setting [2], 89 % of control; (dose: 200.0 mg/kg/injection, schedule: Q04DX003 (ip), vehicle: other) 92 % of control; under setting [3], 90 % of control; (dose: 400.0 mg/kg/injection, schedule: Q04DX003 (ip), vehicle: other) 89 % of control.

In the case of `O=P(Cc1ccccc1)(C(O)c1ccccc1)C(O)c1ccccc1` (centres undefined), the T/C was 87 % of control under setting [4] and 91 % of control under setting [5].

On to `C[CH2][Ge]([Cl])([CH2]C)[CH2]C`, for which the T/C (dose: 50.0 mg/kg/injection, schedule: Q04DX003 (ip), vehicle: saline with Tween-80) is 99 % of control.

In the case of `O=C(CCCc1ccc(N(CCCl)CCCl)cc1)OCCc1ccccc1`, the T/C under setting [6] was 111 % of control; the T/C under setting [7] is 114 % of control; the T/C under setting [8] was 124 % of control; the T/C under setting [9] was 112 % of control and 122 % of control; the T/C (dose: 400.0 mg/kg/injection, schedule: Q04DX002 (ip), vehicle: saline) is 112 % of control.

Take `O=C(O)CCC(NC(=O)OCc1ccccc1)C(=O)NCC(=O)O` (centres undefined) (Cbz-[ξE]-Gly-OH): the T/C by setting is: (dose: 12.5 mg/kg/injection, schedule: Q04DX002 (ip), vehicle: saline) 95 % of control; under setting [6], 92 % of control; under setting [7], 100 % of control.

Regarding `COc1ccc2nc3cc(Cl)ccc3c(NCCC[N+](C)(C)CCCCCCCCCC[N+](C)(C)CCCNc3c4ccc(Cl)cc4nc4ccc(OC)cc34)c2c1`, the T/C (dose: 0.78 mg/kg/injection, schedule: Q01DX009 (ip), vehicle: saline with Tween-80) was 102 % of control; the T/C (dose: 1.56 mg/kg/injection, schedule: Q01DX009 (ip), vehicle: saline with Tween-80) is 94 % of control and 100 % of control; the T/C (dose: 3.13 mg/kg/injection, schedule: Q01DX009 (ip), vehicle: saline with Tween-80) is 100 % of control and 101 % of control; the T/C (dose: 6.25 mg/kg/injection, schedule: Q01DX009 (ip), vehicle: saline with Tween-80) was 106 % of control.

Consider `CCSCN1CCN(CSCC)CC1`, for which the T/C is 98 % of control under setting [10] and 104 % of control under setting [11].

In the case of `O=S(=O)(O)c1cc(O)c2c(O)c(N=Nc3ccccc3[As](=O)(O)O)c(S(=O)(=O)O)cc2c1`, the T/C runs as follows: (dose: 50.0 mg/kg/injection, schedule: Q04DX003 (ip), vehicle: saline) 102 % of control; (dose: 100.0 mg/kg/injection, schedule: Q04DX003 (ip), vehicle: saline) 98 % of control and 99 % of control; (dose: 200.0 mg/kg/injection, schedule: Q04DX003 (ip), vehicle: saline) 103 % of control and 120 % of control; (dose: 400.0 mg/kg/injection, schedule: Q04DX003 (ip), vehicle: saline) 101 % of control and 103 % of control.

`OCC1OC(n2cc(Br)c3c(Cl)ncnc32)C(O)C1O` (centres undefined): the T/C reads like this: (dose: 50.0 mg/kg/injection, schedule: Q01DX001 (ip), vehicle: carboxymethylcellulose (CMC)) 117 % of control; (dose: 100.0 mg/kg/injection, schedule: Q01DX001 (ip), vehicle: carboxymethylcellulose (CMC)) 87 % of control; (dose: 200.0 mg/kg/injection, schedule: Q01DX001 (ip), vehicle: carboxymethylcellulose (CMC)) 93 % of control; (dose: 400.0 mg/kg/injection, schedule: Q01DX001 (ip), vehicle: carboxymethylcellulose (CMC)) 112 % of control.

Turning to `NC(CCl)=NC1CC1`, the T/C was 106 % of control under setting [6], 106 % of control under setting [7] and 110 % of control under setting [8].

Regarding `CC(C#N)OC(=O)c1ccccc1` (centres undefined), the T/C (dose: 8.75 mg/kg/injection, schedule: Q01DX009 (ip), vehicle: acetone) is 96 % of control; the T/C (dose: 12.5 mg/kg/injection, schedule: Q01DX001 (ip), vehicle: saline) is 100 % of control; the T/C (dose: 17.5 mg/kg/injection, schedule: Q01DX009 (ip), vehicle: acetone) is 95 % of control; the T/C (dose: 25.0 mg/kg/injection, schedule: Q01DX001 (ip), vehicle: saline) is 105 % of control; the T/C (dose: 35.0 mg/kg/injection, schedule: Q01DX009 (ip), vehicle: acetone) was 91 % of control; the T/C (dose: 35.0 mg/kg/injection, schedule: Q04DX003 (ip), vehicle: saline) was 95 % of control. Also, the T/C (dose: 50.0 mg/kg/injection, schedule: Q01DX009 (ip), vehicle: acetone) is 94 % of control.

On to `O=C1OC(CN2CCOCC2)CN1/N=C/c1ccc([N+](=O)[O-])o1` (centres undefined), for which the T/C is, setting by setting: under setting [12], 104 % of control; under setting [13], 92 % of control; (dose: 100.0 mg/kg/injection, schedule: Q01DX001 (ip), vehicle: saline with Tween-80) 97 % of control; under setting [1], 101 % of control; under setting [14], 310 % of control; under setting [8], 105 % of control. In addition, the T/C is 97 % of control (dose: 200.0 mg/kg/injection, schedule: Q01DX001 (ip), vehicle: saline with Tween-80); 90 % of control under setting [15]; 98 % of control under setting [9]; 104 % of control (dose: 400.0 mg/kg/injection, schedule: Q01DX001 (ip), vehicle: saline with Tween-80).

`O=C(CN1CCCCC1)c1ccc(/C=C/c2ccc(Cl)cc2)cc1`: the T/C is, setting by setting: (dose: 12.5 mg/kg/injection, schedule: Q01DX009 (ip), vehicle: Klucel (hydroxypropylcellulose) (HPC)) 93 % of control; under setting [12], 97 % of control; under setting [13], 87 % of control and 88 % of control; under setting [4], 88 % of control; under setting [5], 88 % of control.

Take `CC1C(=O)C(Br)C2CC(O)CCC2(C)C1C` (centres undefined): the T/C (dose: 75.0 mg/kg/injection, schedule: Q01DX001 (ip), vehicle: saline) is 100 % of control; the T/C (dose: 150.0 mg/kg/injection, schedule: Q01DX001 (ip), vehicle: saline) was 94 % of control; the T/C (dose: 300.0 mg/kg/injection, schedule: Q01DX001 (ip), vehicle: saline) is 89 % of control.

Consider `CCOC(Nc1ccc(Cl)c(Cl)c1)C(=O)c1ccccc1` (centres undefined), for which the T/C is, setting by setting: under setting [10], 105 % of control; under setting [11], 105 % of control; (dose: 400.0 mg/kg/injection, schedule: Q01DX001 (ip), vehicle: saline) 96 % of control.

As for `COC(=O)C1=C(\O)CCCC/C=C\1C(=O)OC`, the T/C under setting [14] was 87 % of control; the T/C under setting [15] was 97 % of control; the T/C (dose: 400.0 mg/kg/injection, schedule: Q04DX002 (ip), vehicle: Klucel (hydroxypropylcellulose) (HPC)) is 107 % of control.

For `COc1cccc2c1CC/C(=C\c1cccnc1)C2=O`, the T/C was 103 % of control (dose: 100.0 mg/kg/injection, schedule: Q04DX003 (ip), vehicle: carboxymethylcellulose (CMC)); 102 % of control (dose: 200.0 mg/kg/injection, schedule: Q04DX003 (ip), vehicle: carboxymethylcellulose (CMC)); 95 % of control (dose: 400.0 mg/kg/injection, schedule: Q04DX003 (ip), vehicle: carboxymethylcellulose (CMC)).

In the case of `CCCCCCC(/C=N/NC(=O)CCCCCCCCC(=O)N/N=C/C(=C/c1ccccc1)CCCCCC)=C\c1ccccc1`, the T/C was 93 % of control under setting [1], 98 % of control under setting [2] and 91 % of control under setting [3].

Take `Oc1ccccc1/C=N/c1ccccn1`: the T/C by setting is: under setting [12], 106 % of control; under setting [13], 97 % of control.

As for `CCOC(=O)C(c1ccccc1)N(c1ccccc1)S(=O)(=O)c1ccc(C)cc1` (centres undefined), the T/C is, setting by setting: (dose: 100.0 mg/kg/injection, schedule: Q01DX001 (ip), vehicle: other) 116 % of control; (dose: 200.0 mg/kg/injection, schedule: Q01DX001 (ip), vehicle: other) 98 % of control; (dose: 400.0 mg/kg/injection, schedule: Q01DX001 (ip), vehicle: other) 101 % of control.

`CCNc1cc(Cl)c(C(=O)O)cc1[N+](=O)[O-]`: the T/C reads like this: (dose: 100.0 mg/kg/injection, schedule: Q01DX009 (ip), vehicle: saline) 116 % of control; (dose: 200.0 mg/kg/injection, schedule: Q01DX009 (ip), vehicle: saline) 103 % of control; (dose: 400.0 mg/kg/injection, schedule: Q01DX009 (ip), vehicle: saline) 95 % of control.
